Among the test systems are T-47D breast; U251 CNS; UACC-62 melanoma; SW-620 colon; NCI-H226 lung; A549 NSCLC; HCT-116 colon; BT-549 breast; OVCAR-8 ovarian; SNB-75 CNS.
What all share (assay): NCI anticancer screen, dose series, 48 h

Each structure is given as a SMILES string.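 Five compound concentrations were applied to cells in 96-well plates for 48 hours; endpoints were derived by simple linear interpolation of the resulting dose-response curve. Here, GI50 denotes the concentration required for 50% inhibition of growth. The concentration for full growth arrest is given as TGI.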

Turning to `Nc1ccc(-c2ccc(N)cc2I)c(I)c1`, the GI50 with T-47D breast was 18.5 µM; in the assay with U251 CNS, 16.3 µM; in the assay with UACC-62 melanoma it was 12.1 µM; with SW-620 colon, 19.4 µM; in the assay on NCI-H226 lung, 17.2 µM; in the assay with A549 NSCLC it was 29.9 µM. Moreover, the GI50 in the assay on HCT-116 colon is 15.2 µM; in the assay on BT-549 breast it was 13.8 µM; with OVCAR-8 ovarian, 27.1 µM; in the assay with SNB-75 CNS, 10.8 µM. The TGI is 59.1 µM in the assay with T-47D breast; 35.6 µM in the assay with U251 CNS; 33.2 µM in the assay with UACC-62 melanoma; 81.7 µM in the assay with SW-620 colon; 45.4 µM in the assay on NCI-H226 lung; greater than 100 µM in the assay with A549 NSCLC. The TGI with HCT-116 colon came to 32 µM; in the assay with BT-549 breast it was 36.1 µM; with OVCAR-8 ovarian it was 94.7 µM; in the assay with SNB-75 CNS, 73.8 µM.

Take `CSc1ccccc1C#Cc1ccccc1C#CCCCCO`: the GI50 in the assay with T-47D breast was 15 µM; with U251 CNS, 10.8 µM; in the assay on UACC-62 melanoma, 13 µM; in the assay on SW-620 colon, 11 µM; in the assay on NCI-H226 lung, 19 µM; with A549 NSCLC, 12.6 µM. The GI50 with HCT-116 colon is 14 µM; with BT-549 breast, 13.3 µM; in the assay with OVCAR-8 ovarian, 18.7 µM; in the assay on SNB-75 CNS, 13.8 µM. Moreover, the TGI was found to be 34.5 µM in the assay with T-47D breast; 22.7 µM in the assay on U251 CNS; 25.7 µM with UACC-62 melanoma; 26.2 µM in the assay on SW-620 colon; 43.6 µM with NCI-H226 lung; 27.1 µM with A549 NSCLC. The TGI in the assay on HCT-116 colon is 31.4 µM; with BT-549 breast, 26.6 µM; in the assay on OVCAR-8 ovarian it was 41.7 µM; in the assay with SNB-75 CNS, 28 µM.

As for `S=C(Nc1cc(Cl)c(Cl)cc1Cl)SCc1ccccc1`, the TGI in the assay on T-47D breast is greater than 100 µM; in the assay on U251 CNS, 52.7 µM; with UACC-62 melanoma it was greater than 100 µM; with SW-620 colon it was greater than 100 µM; in the assay on NCI-H226 lung, 42.4 µM; with A549 NSCLC, greater than 100 µM. Moreover, the TGI in the assay with HCT-116 colon was 83 µM; with BT-549 breast it was 65.8 µM; in the assay with OVCAR-8 ovarian, 51.5 µM; with SNB-75 CNS, greater than 100 µM.

For the compound `Clc1nc(Cl)c(-c2ccccc2)c(Cl)n1`, the TGI with T-47D breast stood at 9.28 µM; in the assay on U251 CNS, 10 µM; with UACC-62 melanoma it was 10.7 µM; in the assay on SW-620 colon it was 5.34 µM; with NCI-H226 lung, 5.76 µM; in the assay with A549 NSCLC, 36.1 µM. Also, the TGI in the assay on HCT-116 colon is 3.6 µM; with BT-549 breast it was 7.09 µM; in the assay with OVCAR-8 ovarian, 10.6 µM; in the assay on SNB-75 CNS, greater than 54.8 µM.

`O=C(CN(/C=C/C(=O)C(F)(F)F)c1ccccc1)c1ccc(Cl)c(Cl)c1`: the GI50 in the assay with T-47D breast is 15.8 µM; in the assay on U251 CNS it was 14.8 µM; in the assay with UACC-62 melanoma, 9.43 µM; in the assay with SW-620 colon, 14.6 µM; with NCI-H226 lung it was 13.7 µM; in the assay on A549 NSCLC, 13.4 µM. Further, the GI50 is 12.7 µM in the assay on HCT-116 colon, 10.9 µM in the assay with BT-549 breast and 16.6 µM with OVCAR-8 ovarian. In addition, the TGI in the assay with T-47D breast is 55.7 µM; in the assay with U251 CNS, 28.1 µM; in the assay on UACC-62 melanoma, 21.3 µM; in the assay with SW-620 colon, 30.1 µM; in the assay with NCI-H226 lung, 27.9 µM; with A549 NSCLC it was 29.8 µM. The TGI in the assay on HCT-116 colon was greater than 100 µM; in the assay on BT-549 breast it was 29.5 µM; in the assay on OVCAR-8 ovarian, 33 µM.

Consider `CC12CC(OC(=O)[C@]1(C)O)[C@@H]([C@]1(O)CC[C@H]3[C@@H]4C[C@H]5O[C@]56[C@@H](O)C=CC(=O)[C@]6(C)[C@H]4CC[C@@]31C)C2` (some centres not stated), for which the TGI in the assay on T-47D breast was 32.9 µM; with U251 CNS, 30 µM; in the assay with UACC-62 melanoma it was 37.2 µM; in the assay on SW-620 colon, 12.4 µM; in the assay with NCI-H226 lung, greater than 100 µM; in the assay with A549 NSCLC, greater than 100 µM. Moreover, the TGI in the assay with HCT-116 colon stood at 13.2 µM; with BT-549 breast it was 9.57 µM; with OVCAR-8 ovarian it was 13.3 µM.

As to `CC(C)C[C@H](NC(=O)[C@@H](O)[C@H](N)Cc1ccc([N+](=O)[O-])cc1)C(=O)O`, the GI50 in the assay on T-47D breast, in the assay with U251 CNS, in the assay with UACC-62 melanoma, in the assay with SW-620 colon, in the assay with NCI-H226 lung and with A549 NSCLC was greater than 25 µM in each case. The GI50 in the assay with HCT-116 colon, in the assay with BT-549 breast, in the assay with OVCAR-8 ovarian and in the assay on SNB-75 CNS was greater than 25 µM in each case. Further, the TGI in the assay on T-47D breast, in the assay on U251 CNS, with UACC-62 melanoma, in the assay with SW-620 colon, in the assay with NCI-H226 lung and in the assay with A549 NSCLC was greater than 25 µM throughout. Besides, the TGI in the assay on HCT-116 colon, with BT-549 breast, in the assay on OVCAR-8 ovarian and with SNB-75 CNS was greater than 25 µM each time.

With `COc1cc(C2CC(c3ccc(N(C)C)cc3)=NN2C(C)=O)cc(OC)c1OC` (configuration not stated), the GI50 was greater than 24.7 µM in the assay with T-47D breast; 1.65 µM with U251 CNS; 1.48 µM in the assay on UACC-62 melanoma; 0.928 µM with SW-620 colon; 6.46 µM in the assay on NCI-H226 lung; 3.36 µM in the assay with A549 NSCLC. Moreover, the GI50 was 1.22 µM in the assay on HCT-116 colon, 2.53 µM with BT-549 breast, 6.13 µM in the assay on OVCAR-8 ovarian and 1.43 µM with SNB-75 CNS. Further, the TGI with T-47D breast, in the assay on U251 CNS, in the assay with UACC-62 melanoma, in the assay with SW-620 colon, with NCI-H226 lung and in the assay with A549 NSCLC was greater than 100 µM each time. The TGI was greater than 45.4 µM with HCT-116 colon, greater than 100 µM in the assay with BT-549 breast, greater than 100 µM in the assay with OVCAR-8 ovarian and greater than 100 µM in the assay with SNB-75 CNS.

With `CC(C)N1C(NNC(=O)c2cnccn2)=NS(=O)(=O)c2ccccc21`, the GI50 with T-47D breast, in the assay with U251 CNS, with UACC-62 melanoma, in the assay with SW-620 colon, with NCI-H226 lung and in the assay on A549 NSCLC was greater than 100 µM each time. In addition, the GI50 in the assay with HCT-116 colon is greater than 100 µM; in the assay on BT-549 breast, greater than 100 µM; in the assay with OVCAR-8 ovarian it was greater than 100 µM; in the assay with SNB-75 CNS, 94.5 µM. Moreover, the TGI with T-47D breast, with U251 CNS, in the assay on UACC-62 melanoma, in the assay on SW-620 colon, with NCI-H226 lung and with A549 NSCLC was greater than 100 µM each time. Also, the TGI in the assay on HCT-116 colon, in the assay on BT-549 breast, in the assay with OVCAR-8 ovarian and in the assay on SNB-75 CNS was greater than 100 µM throughout.

For the origin of these results see PubChem BioAssay (NCI).
